In article PMC5387044, “Analogs of the Frog-skin Antimicrobial Peptide Temporin 1Tb Exhibit a Wider Spectrum of Activity and a Stronger Antibiofilm Potential as Compared to the Parental Peptide” (Frontiers in Chemistry, 2017):
Marks after values point to notes of the source that are not given here. No end group written: not given here.

Tests used:
S. aureus ATCC 33591 [1] = assay type: cell-based, Staphylococcus aureus; details: pH 7.4
S. aureus ATCC 33591 [2] = details: ATCC 33591, 24 h, pH 7.4
[3] = system: human red blood cells (RBCs); details: concentrations up to 96 μM, 1 h, 37°C
Method: Hemolytic activity of TB and its analogs was tested against human red blood cells (RBCs) as previously described (Tavanti et al., [2011]). Briefly, peripheral blood obtained from healthy donors was centrifuged (1,000 × g for 10 min, 4°C) and washed three times with PBS (Euroclone, Milan, Italy). A suspension of RBCs (4%, v/v) was mixed with various concentrations of the peptides (from 12 to 96 μM) into a round-bottom polystyrene 96-well microplate (Corning Costar). RBCs suspended in PBS alone were used as negative control (0% hemolysis), while cells lysed with 0.1% Triton X-100 were taken as positive control (100% hemolysis). The microplate was incubated for 1 h at 37°C and then centrifuged at 1,000 × g for 20 min, 4°C. Supernatants were transferred to a new plate and the optical density at 450 nm (OD450) was measured by means of a microplate reader. The hemolytic activity was quantified according to the following formula: hemolysis (%) = [(OD peptide – OD negative control)/(OD positive control – OD negative control)] × 100.
The hemolytic activity was evaluated by the spectrophotometric determination of hemoglobin released from erythrocytes. PBS (0% hemolysis) and Triton X-100 (100% hemolysis) were used as controls. Hemolysis values ≤ 10% (dashed line) are considered to be non-hemolytic (Amin and Dannenfelser, [2006]). […]

[4] = system: preformed biofilms of S. aureus ATCC 33591; experiment: Biofilm treatment assay on preformed (24-h old) biofilms, CFU counting, alone and with EDTA; assay type: cell-based, Staphylococcus aureus; details: concentrations up to 120 μM, CFU counting
Method: The activity of TB, TB_L1FK, and TB_KKG6A against preformed (24-h old) biofilms of S. aureus and P. aeruginosa was also investigated. Briefly, biofilms were allowed to form for 24 h in flat-bottom 96-well microplates in the absence of antimicrobial compounds. Established biofilms were then washed three times with PBS in order to remove non-adherent cells and incubated in fresh BPM with different concentrations of the three peptides (from 15 to 120 μM). After 24 h of incubation, the viability of biofilm-associated cells was evaluated by CFU counting. For this purpose, biofilms were washed three times with PBS and bacterial cells were detached from the surface of the wells with a pipette tip, vigorously vortexed and plated in serial dilutions on TSA.
TB_L1FK and TB_KKG6A were combined with EDTA in order to enhance their activity against preformed biofilms of S. aureus and P. aeruginosa. […] Following incubation, the antibiofilm effect was evaluated in terms of number of biofilm-associated viable cells as previously described.
Figure 4 Activity of TB_L1FK and TB_KKG6A, used alone and in combination with EDTA, against preformed (24-h old) biofilms of S. aureus ATCC 33591 (A,B) and P. aeruginosa ATCC 27853 (C,D). The antibiofilm activity of the peptides, EDTA and the peptide-EDTA combinations was evaluated by CFU counting after 24 h of incubation. […]

[5] = system: P. aeruginosa ATCC 27853 biofilm formation
[6] = system: S. epidermidis ATCC 35984; details: ATCC 35984, 24 h, pH 7.4
P. aeruginosa ATCC 27853 [7] = assay type: cell-based, Pseudomonas aeruginosa; details: pH 7.4
in vitro [8] = details: human
P. aeruginosa ATCC 27853 [9] = details: ATCC 27853, 24 h, pH 7.4
[10] = system: K. pneumoniae ATCC BAA-1706; details: ATCC BAA-1706, 24 h, pH 7.4
in vitro [11] = details: human; remark: listed apart in the source

LLPIVGNLLKSLL-NH2 [TB, Temporin 1Tb]
Time to bactericidal effect (reduction of at least 3 Log10 in viable bacteria) (S. aureus ATCC 33591 [1]): approximately 90 min
MBC (S. aureus ATCC 33591 [2]): 12^a μM
Hemolytic effect [3]: no hemolytic effect
Antibiofilm activity on preformed biofilms [4]: did not exert a considerable antibiofilm activity
Inhibitory activity on forming biofilms [5]: no inhibitory activity
MBC [6]: 6 µM
Time to bactericidal effect (P. aeruginosa ATCC 27853 [7]): 15 min
viability (in vitro [8]): ~90%
MBC (P. aeruginosa ATCC 27853 [9]): 48 µM
MBC [10]: 48 µM
viability (in vitro [11]): ~90%
